For one data set, the target named is T1, CCR2 receptor (Homo sapiens, UniProt P41597).
T1 construct: host or cells: THP-1 (human monocytic cell line)
T1 sequence (P41597 1-360 isoform P41597-2): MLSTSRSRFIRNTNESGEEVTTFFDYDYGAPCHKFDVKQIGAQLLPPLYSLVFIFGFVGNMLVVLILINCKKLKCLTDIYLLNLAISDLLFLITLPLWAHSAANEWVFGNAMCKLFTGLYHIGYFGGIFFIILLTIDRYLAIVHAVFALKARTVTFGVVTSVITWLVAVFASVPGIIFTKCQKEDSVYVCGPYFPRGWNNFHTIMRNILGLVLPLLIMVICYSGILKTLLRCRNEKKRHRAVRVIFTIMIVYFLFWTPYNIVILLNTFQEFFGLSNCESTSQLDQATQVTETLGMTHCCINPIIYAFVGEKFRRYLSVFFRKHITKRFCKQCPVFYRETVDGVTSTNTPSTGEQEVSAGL
The experiment in a line: Inhibition of MCP-1 induced Ca-flux in human THP-1 cells. It counts as cell-based. To be noted: -log IC50 (molar), inhibition of specific MCP-1 induced Ca2+ flux, 10^-7 M hMCP-1, 20 min pre-incubation, FLIPR. The protocol: D. Pharmacological Example Inhibition of MCP-1 Induced Ca-Flux in Human THP-1 Cells
MCP-1 binding to the CCR2 receptor induces a rapid and transient intracellular release of Ca^2+ (secondary messenger) in several cell lines (Charo et al, PNAS 1994). Free Ca^2+ levels can be measured using a Ca^2+ sensitive dye. When the CCR2 receptor is blocked with a CCR2 receptor antagonist, the MCP-1 induced release of Ca^2+ is inhibited.
Human THP-1 cells (monocytic cell line, ATCC TIB-202) were cultured in RPMI 1640 medium supplemented with 10% fetal calf serum (FCS), 1% L-Glutamine, penicillin (50 U/ml) and streptomycin (50 μg/ml) (all GIBCO BRL, Gent). After centrifugation, cells were loaded for 30 minutes with the Ca^2+ sensitive fluorescent dye Fluo-3 AM (Molecular Probes, Leiden, Netherlands) (2 million cells/ml in RPMI medium containing 4 μM Fluo-3 AM, 20 mM HEPES, 0.1% Bovine Serum Albumin (BSA) and 5 mM probenecid). Excess dye was removed by 3-fold washing with buffer (5 mM HEPES, 140 mM NaCl, 1 mM MgCl2, 5 mN KCl, 10 mM glucose, 2.5 mM probenecid, 1.25 mM CaCl2, 0.1% BSA; all further incubations were done in this buffer). Cells were plated at a density of 150 000 cells/well in dark-wall 96-well plates (Costar, Cambridge, Mass.) and sedimented by centrifugation (1 minute). The cells were pre-incubated for 20 minutes with test compound Then, 10^−7 M hMCP-1 (Bachem, Bubendorf, Switserland) was added. Changes in intracellular free Ca^2+ concentration were measured using the Fluorescent Imaging Plate Reader (FLIPR, Molecular Devices, Munchen, Germany). Fluorescence was recorded every second from 10 seconds before the addition of the MCP-1 till 2 minutes after the addition (first minute: 60 records with 1 second intervals, second minute 20 records with 3 second intervals). The maximal fluorescence obtained during this time frame was used for further calculations.
Table 4 reports pIC50 values obtained in the above-described test for compounds of formula (I). pIC50 defines −log IC5o wherein IC50 is the molar concentration of the test compound which inhibits 50% of specific MCP-1 induced Ca^2+ flux.
A general note: A change in cytosolic calcium serves as a functional read-out for many receptors and channels.

The next data set concerns the target T2, CCR2B (Homo sapiens, UniProt P41597).
T2 construct: expressed in transfected cells; host or cells: CHO cells (membrane preparation)
T2 sequence (P41597 1-360 isoform P41597-2): T1 sequence (P41597 1-360 isoform P41597-2)
Put plainly: 125I-MCP-1 radioligand binding assay, membranes from CCR2B-transfected CHO cells. To be noted: competition with 0.15 nM 125I-MCP-1, 90 minutes at 25° C.; Cheng-Prusoff. Here is the method:
Radioligand Binding Assay.
^125I-MCP binding assays performed in 96-well plates with 40 μg of protein per well. Compounds were dissolved and diluted in DMSO to 100× dilutions. A 10× concentration range of compounds was prepared in binding buffer (10% DSMO). Competition binding assay contained the following components in a total volume of 250 μl of the appropriate compound dilution (final concentration of 1% DMSO), 200 μl membranes from CCR2B-transfected CHO cells dissolved in binding buffer and 25 μl ^125I-MCP-1(Bolton and Hunter labeled, Amersham, specific activity=2000 Ci/mmol, 0.15 nM final). Binding buffer was composed of 25 mM HEPES, 5 mM MgCl2, 1 mM CaCl2, 0.5% protease-free bovine serum albumin, pH 7.4. After 90 minutes incubation at 25° C., membranes were harvested on GF/B filters -presoaked in 0.5% polyethylenimene, followeded by washing with buffer containing 25 mM HEPES, 5 mM MgCl2, 1 mM CaCl2, […], pH 7.4. Filter bound radioactivity was determined by liquid scintillation counting. EC50 values (μM) and Ki values (μM) were calculated. […] EC50 values and Ki values were calculated using non-linear regression in Graphpad Prism. […]

Experimental findings from patent US20070244138A1, “Mercaptoimidazoles as Ccr2 Receptor Antagonists” (JANSSEN PHARMACEUTICA N.V., priority 2004, published 2007) are described below.

As a reminder, the IC50 is the concentration needed to halve the response being measured. A high value points to a need for much substance. Usually Ki stands for a measure of affinity in units of concentration, obtained from inhibition or displacement. A higher Ki goes with lower affinity. For orientation: melting point means the temperature, or range, at which the solid turns liquid.

Regarding `CCC(c1ccc(Cl)c(Cl)c1)n1c(-c2ccnc(N)n2)c[nH]c1=S` (stereo not shown) [Compound 1], half-maximal inhibition against CCR2 receptor (IC50) required 35.5 nM. For the same molecule, the Ki at CCR2B was 170 nM.

Take `CCC(c1ccc(Cl)c(Cl)c1)n1c(-c2nc(C)no2)cnc1S` (stereo not shown) [Compound 5]: at CCR2 receptor, the IC50 was 200 nM.

Regarding `CCC(c1ccc(Cl)c(Cl)c1)n1c(-c2nnc(N)o2)cnc1S` (stereo not shown) [Compound 9], on CCR2 receptor, the IC50 was 33.1 nM.

For the molecule `CCCC(c1ccc(F)c(F)c1)n1c(-c2nnc(C)o2)c(COC)[nH]c1=S` (stereo not shown) [Compound 10], the melting point fell in the range of 97.8 to 97.9 °C.

On CCR2 receptor, `CCC(c1ccc(Cl)c(Cl)c1)n1c(-c2cc[nH]n2)c[nH]c1=S` (stereo not shown) [Compound 11] showed an IC50 of 724 nM.

At CCR2 receptor, `CCC(c1ccc(Cl)c(Cl)c1)n1c(-c2ncn[nH]2)c[nH]c1=S` (stereo not shown) [Compound 12] gave an IC50 of 398 nM.

Turning to `CCC(c1ccc(Cl)c(Cl)c1)n1c(-c2nnc(C)o2)c[nH]c1=S` (stereo not shown) [Compound 14], half-maximal inhibition at CCR2 receptor (IC50) was put at 417 nM.

In the case of `CCC(c1ccc(Cl)c(Cl)c1)n1c(-c2ccnc(C)n2)c[nH]c1=S` (stereo not shown) [Compound 19], half-maximal inhibition at CCR2 receptor (IC50) required 832 nM.

For `CCC(c1ccc(Cl)c(Cl)c1)n1c(-c2ccnc(NC)n2)c[nH]c1=S` (stereo not shown) [Compound 20], the midpoint of inhibition at CCR2 receptor, the IC50, lay at 41.7 nM.

`CCC(c1ccc(Cl)c(Cl)c1)n1c(-c2ccnc(NCCO)n2)c[nH]c1=S` (stereo not shown) [Compound 21]: the IC50 against CCR2 receptor is 34.7 nM.

In turn, `CCC(c1ccc(Cl)c(Cl)c1)n1c(-c2ccnc(N3CCNCC3)n2)c[nH]c1=S` (stereo not shown) [Compound 24] showed a 50% inhibitory concentration (IC50) at CCR2 receptor of 631 nM.

In the case of `CCC(c1ccc(C(F)(F)F)c(F)c1)n1c(-c2nc(C)no2)c[nH]c1=S` (stereo not shown) [Compound 26], at CCR2 receptor, half-maximal inhibition (IC50) required 219 nM.
